Source: the NIST ThermoML archive (doi:10.1021/je034203p)

Experiment: xn = mol fraction of the nth substance listed
Conditions: 298.15 K, 101.3 kPa, Liquid; for viscosity: Capillary tube (Ostwald / Ubbelohde) method

CCCCO [butan-1-ol] + ClC(Cl)=C(Cl)Cl
x2 = 0
Conditions	mass density [kg/m3]	viscosity [mPa·s]
–	806.3	2.538

ClC=C(Cl)Cl [trichloroethene] + CC(C)=O
Conditions	mass density [kg/m3]	viscosity [mPa·s]
x1 = 0.084	845.9	0.3412
x1 = 0.1712	912.3	0.3688
x1 = 0.2608	978.8	0.3958
x1 = 0.3544	1045	0.4244
x1 = 0.4519	1111.6	0.4501
x1 = 0.5528	1179	0.4723
x1 = 0.6582	1246.4	0.4906
x1 = 0.7671	1315.6	0.5107
x1 = 0.8815	1385.7	0.5309
x1 = 1	1455.7	0.551

CCC(C)=O [butanone] + ClC(Cl)=C(Cl)Cl
x2 = 0
Conditions	mass density [kg/m3]	viscosity [mPa·s]
–	797.4	0.4011

ClC(Cl)(Cl)Cl [tetrachloromethane] + ClC=C(Cl)Cl
x2 = 0
Conditions	mass density [kg/m3]	viscosity [mPa·s]
–	1586.1	0.9096

CCCO [propan-1-ol] + ClC=C(Cl)Cl
x2 = 0
Conditions	mass density [kg/m3]	viscosity [mPa·s]
–	800	1.954

ClC(Cl)=C(Cl)Cl [tetrachloroethene] + COC(C)=O
Conditions	mass density [kg/m3]	viscosity [mPa·s]
x1 = 0.0796	989.2	0.4237
x1 = 0.1628	1054.7	0.4749
x1 = 0.25	1120.7	0.5226
x1 = 0.3415	1188.6	0.5729
x1 = 0.4373	1255.3	0.6243
x1 = 0.5388	1322.7	0.6708
x1 = 0.6452	1393.1	0.7166
x1 = 0.7573	1464.2	0.7614
x1 = 0.8749	1535.4	0.8038
x1 = 1	1610.2	0.8474

CO [methanol] + ClC=C(Cl)Cl
x2 = 0
Conditions	mass density [kg/m3]	viscosity [mPa·s]
–	788.1	0.5482

CCC(C)=O [butanone] + ClC=C(Cl)Cl
x2 = 0
Conditions	mass density [kg/m3]	viscosity [mPa·s]
–	797.4	0.4011

CC(C)O [propan-2-ol] + ClC=C(Cl)Cl
x2 = 0
Conditions	mass density [kg/m3]	viscosity [mPa·s]
–	784.3	2.044

ClC=C(Cl)Cl [trichloroethene] + CCC(C)O
Conditions	mass density [kg/m3]	viscosity [mPa·s]
x1 = 0.102	868.5	2.502
x1 = 0.2035	932.3	2.019
x1 = 0.304	996.3	1.641
x1 = 0.4049	1061.2	1.344
x1 = 0.505	1125.4	1.128
x1 = 0.6051	1190.1	0.9463
x1 = 0.7042	1255.7	0.8155
x1 = 0.8033	1322	0.7014
x1 = 0.9014	1388.3	0.6101
x1 = 1	1455.7	0.551

ClC=C(Cl)Cl [trichloroethene] + CCO
Conditions	mass density [kg/m3]	viscosity [mPa·s]
x1 = 0.0673	852.4	1.047
x1 = 0.1397	918.2	0.9855
x1 = 0.2173	983.9	0.9272
x1 = 0.3018	1049.4	0.8651
x1 = 0.3932	1115.8	0.8082
x1 = 0.493	1182.4	0.7528
x1 = 0.602	1249.4	0.6984
x1 = 0.7215	1317.1	0.647
x1 = 0.8563	1385.6	0.5974
x1 = 1	1455.7	0.551

ClC=C(Cl)Cl [trichloroethene] + c1ccccc1
Conditions	mass density [kg/m3]	viscosity [mPa·s]
x1 = 0.0997	923.8	0.5937
x1 = 0.1995	981.7	0.584
x1 = 0.2988	1037.2	0.5761
x1 = 0.3987	1094.6	0.5682
x1 = 0.4986	1152.3	0.5621
x1 = 0.5991	1211	0.5573
x1 = 0.6991	1269.8	0.5573
x1 = 0.7989	1330.3	0.5517
x1 = 0.8998	1391.9	0.5499
x1 = 1	1455.7	0.551

ClC(Cl)=C(Cl)Cl [tetrachloroethene] + Cc1ccccc1
Conditions	mass density [kg/m3]	viscosity [mPa·s]
x1 = 0.1034	932	0.5799
x1 = 0.2062	1004.7	0.6014
x1 = 0.3079	1078.4	0.6234
x1 = 0.4093	1151.3	0.6477
x1 = 0.5095	1225.3	0.6743
x1 = 0.6092	1300.1	0.7053
x1 = 0.7083	1376.8	0.7377
x1 = 0.806	1451.7	0.7701
x1 = 0.9038	1530.1	0.8084
x1 = 1	1610.2	0.8474

CCO [ethanol] + ClC(Cl)=C(Cl)Cl
x2 = 0
Conditions	mass density [kg/m3]	viscosity [mPa·s]
–	787.4	1.112

CC(C)O [propan-2-ol] + ClC(Cl)=C(Cl)Cl
x2 = 0
Conditions	mass density [kg/m3]	viscosity [mPa·s]
–	784.3	2.044

ClC=C(Cl)Cl [trichloroethene] + CO
Conditions	mass density [kg/m3]	viscosity [mPa·s]
x1 = 0.0477	853.7	0.5565
x1 = 0.1014	920.3	0.5667
x1 = 0.1616	985.5	0.5738
x1 = 0.2308	1052.1	0.5833
x1 = 0.3105	1117.9	0.595
x1 = 0.4033	1184.5	0.6017
x1 = 0.5125	1251.2	0.6021
x1 = 0.643	1318.4	0.5908
x1 = 0.8021	1386.3	0.575
x1 = 1	1455.7	0.551

CCC(C)O (stereo unspecified) [butan-2-ol] + ClC=C(Cl)Cl
x2 = 0
Conditions	mass density [kg/m3]	viscosity [mPa·s]
–	804.8	3.103

CCOC(C)=O [ethyl acetate] + ClC=C(Cl)Cl
x2 = 0
Conditions	mass density [kg/m3]	viscosity [mPa·s]
–	894	0.4274

ClC=C(Cl)Cl [trichloroethene] + CCC(C)=O
Conditions	mass density [kg/m3]	viscosity [mPa·s]
x1 = 0.1004	861.2	0.4307
x1 = 0.2005	924.2	0.4566
x1 = 0.3002	987.2	0.4835
x1 = 0.4005	1052.5	0.5088
x1 = 0.5005	1117.6	0.5281
x1 = 0.6007	1183.7	0.5391
x1 = 0.7004	1249.6	0.5455
x1 = 0.8004	1315.5	0.5499
x1 = 0.8998	1385.4	0.5495
x1 = 1	1455.7	0.551

CCC(C)O (stereo unspecified) [butan-2-ol] + ClC(Cl)=C(Cl)Cl
x2 = 0
Conditions	mass density [kg/m3]	viscosity [mPa·s]
–	804.8	3.103

ClC(Cl)(Cl)Cl [tetrachloromethane] + ClC(Cl)=C(Cl)Cl
x2 = 0
Conditions	mass density [kg/m3]	viscosity [mPa·s]
–	1586.1	0.9096
